Two compounds from article PMC13242511, “Disrupting Notch signalling by a small molecule inhibiting dihydroorotate dehydrogenase activity” (Scientific Reports, 2026) can be followed below.

Holding throughout (format): cell-based
For one test, the system named is Notch signalling. Briefly: DHODH inhibitor and uridine rescue experiment (Notch reporter assay). As to conditions: 1 and 10 µM, 24 h. On the procedure:
HEK293T Notch reporter cells (#A1-11) were grown to 80% confluency, detached and mixed with the indicated compounds and doses with or without uridine (Sigma-Aldrich, cat #U3003). 10,000 cells/well were then seeded into 96-well cell culture plates (ThermoFisher, cat #136102) and incubated for 24 h. DMSO treatment with or without uridine served as control for each treatment. Cells were then subjected to Notch reporter assays, and luciferase signals were recorded on a Varioscan Lux microplate reader (ThermoFisher). Reporter signals from each treatment were normalised to the respective DMSO control, as described above and three independent assays were recorded with at least two technical replicates per treatment.
(In a reporter assay the amount or activity of a reporter protein is the signal.)

The subject of a further test is NOTCH1. Briefly: Cell surface biotinylation experiment. As to conditions: MDA-MB-231, 2 µM, 24 h; Fig. 8B. The method, then: For labelling of membrane proteins, MDA-MB-231 cells were grown to 80% confluency in 6-well cell culture dishes (ThermoFisher, cat #104675) and treated with 2 µM of the indicated compounds for 24 h. Plates were then put on ice for 10 min to slow down cellular metabolism and halt internalisation of membrane proteins. Next, 0.5 mg/ml Sulfo-NHS-Biotin (ThermoFisher, cat #21217) in PBS was added to every second well for 40 min and non-treated wells served as controls. Excess of biotin was removed by washing the plates with PBS followed by incubation with 100 mM glycin (Sigma-Aldrich, cat #G8898) in PBS on ice. Wells were washed twice with ice-cold PBS and next, 500 µl lysis buffer was added to each well (50 mM Tris–HCl pH 7.4, 150 mM NaCl, 1% Triton X-100, (Sigma-Aldrich, cat #X100), 2 mM EDTA, including protease and phosphatase inhibitors, Thermofisher, cat #78442). […] NOTCH1 TMICD western blot band intensity was quantified using Fiji (ImageJ) after background subtraction. Relative enrichment of NOTCH1 protein present at the cell surface was calculated with IP/Input ratio (IP NOTCH1/Input NOTCH1). Input and corresponding IP fraction of a treatment were separated on the same gel and bands were measured while non-saturated. Two independent biological replicates were assessed.

In another test the test system is HES-1 in JURKAT cells. Briefly: Western blot analysis of HES1 protein. To be noted: 2 µM, 48 h, Fig. 8C. The method, then: (§1) Cells were washed in ice-cold PBS and incubated for 30 min on ice with RIPA cell lysis buffer (Thermofisher, cat #89900) containing protease and phosphatase inhibitors (Thermofisher, cat #78442), scraped off and homogenized using a 25G syringe, and subsequently centrifugated for 10 min at > 13,000xg. […] After electrophoresis, gels were placed directly onto a TransBlot Turbo PVDF or nitrocellulose membrane (Bio-rad, cat #1704157 and cat #1704159) and transferred using the “HIGH MW” protocol (Bio-Rad). Subsequently, membranes were blocked for 1 h at room temperature using Clear Milk Blocking Buffer (ThermoFisher, cat #37587) supplemented with 0.1% Tween20 (Sigma-Aldrich, cat #P1379). Detection of antibody binding was performed by using Clarity Western ECL-Substrate (Bio-rad, cat #1705060S). Beta-Actin protein signals were used as a loading control. Western blot membranes were in some experiments stripped after development (indicated in the figure in each respective case) by washing the membranes twice for 10 min in PBS, followed by incubation in membranes in western blot stripping buffer (ThermoFisher, cat #21059) for 30 min at room temperature and gentle agitation. […] Protein expression levels of western blot bands were quantified using Fiji (V.2.16) with beta-Actin signals for normalisation (Supplemental Table 8). […]
In general terms: A western blot detects proteins with antibodies after separation by electrophoresis.

A further test relates to HES1 in MDA-MB-231 cells. Briefly: Western blot analysis of HES1 protein. To be noted: MDA-MB-231, 2 µM, 48 h; Fig. 8C. On the procedure: as §1
The test system of a further test is BT-20 cells. In words: Growth inhibition, metabolic activity (CellTiter-Glo). As to conditions: Homo sapiens; BT-20, six days; read-out: approximated IC50, metabolic activity. From the text:
(§2) We next investigated whether compounds A-E affected growth and viability of cell lines from T-cell acute lymphoblastic leukaemia (T-ALL) and breast cancer, two tumour types in which elevated Notch signalling has been implicated in tumorigenesis. […] When testing analogues of compounds B and C, five of the seven B analogues and one of the two C analogues produced dose–response curves and IC50s, which however were higher compared to the original hits (Supplemental Fig. 5A; IC50s are presented in Supplemental Table 6).
(§3) Compounds were spotted on white 384-well tissue culture plates (Greiner, cat #781080) using an Echo 525 Acoustic liquid handler (Labcyte). Cells were grown to 80% confluence, detached if required, counted and 20 µl containing 2000–4000 cells per well was then seeded in each well and cultivated for three (4,000 cells seeded) and six days (2,000 cells seeded). […] Luciferase activity (reading out metabolic activity) was determined using the CellTiter-Glo 2.0 kit (CTG, Promega, cat #G9242) following the manufacturer’s instructions and luminescence was measured on a SpectraMaxi3 or Varioscan plate reader (Molecular Devices, Thermofisher).

The test system of the next test is MDA-MB-436 cells. The description is as above. As to conditions: Homo sapiens; MDA-MB-436, six days; read-out: approximated IC50, metabolic activity.
From the text: as §2, §3

The IC50 is the concentration at which inhibition is half-maximal.

The structures appear in SMILES notation.

As for `COc1cccc(CNc2ccc(N3CCCCC3)cc2)c1OCc1cccs1` [compound C], the “effect on Notch reporter activity after addition of uridine” value with Notch signalling (plus 100 µM uridine) is “reversed”. Also, the “Notch reporter assay activity” value in the test with Notch signalling (without uridine) is on record as “reduced the reporter assay activity”. In addition, the NOTCH1 surface presentation entry in the test on NOTCH1 is “not hindered”. Besides, the “level of HES-1 protein” value in the test with HES-1 in JURKAT cells is on record as “reduced”. Further, the HES1 protein levels entry in the test on HES1 in MDA-MB-231 cells is on record as “reduction in HES1 levels”.
Consider `Cc1ccc2[nH]c3c(c2c1)CCOC31CCN(Cc2ccccc2-c2ccccc2)CC1` [compound B], for which the results for the IC50 in the test with BT-20 cells and with MDA-MB-436 cells were 3200 nM and 2000 nM, respectively.
